Values of other authors, collected in patent US8106000B2, “Colonic delivery of adsorbents” (Da Volterra, priority 2005, dated 2012).

Conditions: oral doses 1 to […]

O=C(O)c1cn(C2CC2)c2cc(N3CCNCC3)c(F)cc2c1=O [ciprofloxacin]
expected residual ciprofloxacin in feces (% of oral doses): ≤ 25%
